Measurements as given in the supplement of paper PMC10307832.

Legend:
Assay in all cases: relative viability (nuclei count vs DMSO), 5 days (fraction); higher = more cells survive
[1] = compound: CN(C)CC1=CC(=CC=C1)N=C(C2=CC=CC=C2)C3=C(NC4=C3C=CC(=C4)C(=O)N(C)C)O + CC(=O)c1c(C)c2cnc(Nc3ccc(N4CCNCC4)cn3)nc2n(C2CCCC2)c1=O [Palbociclib] (partner 0.5 µM)
Summary of the method: (§1)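 Dosing by pin tool came one day after lung cancer cell lines were seeded in 1536-well plates, using either one drug or a fixed anchor-drug dose plus five library-drug doses (not always all listed) in √10 steps. After 5 days, nuclei were counted on 4× images. Relative viability is treated-well nuclei count divided by vehicle-well nuclei count, and values are medians of duplicate plates.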

[2] = compound: CN(C)CC1=CC(=CC=C1)N=C(C2=CC=CC=C2)C3=C(NC4=C3C=CC(=C4)C(=O)N(C)C)O + Cc1nc(Nc2ncc(C(=O)Nc3c(C)cccc3Cl)s2)cc(N2CCN(CCO)CC2)n1 [Dasatinib] (partner 0.075 µM)
Summary of the method: as §1

[3] = compound: CN(C)CC1=CC(=CC=C1)N=C(C2=CC=CC=C2)C3=C(NC4=C3C=CC(=C4)C(=O)N(C)C)O + Nc1nc2[nH]cc(CCc3ccc(C(=O)N[C@@H](CCC(=O)O)C(=O)O)cc3)c2c(=O)[nH]1 [Pemetrexed] (partner 0.2 µM)
Summary of the method: as §1

[4] = compound: CN(C)CC1=CC(=CC=C1)N=C(C2=CC=CC=C2)C3=C(NC4=C3C=CC(=C4)C(=O)N(C)C)O + O=C(CCCCCCC(=O)Nc1ccccc1)NO [Vorinostat] (partner 1 µM)
Summary of the method: as §1

Cell Line | relative viability ([1]; first compound 0.08 µM) | relative viability ([1]; first compound 0.253 µM) | relative viability ([1]; first compound 0.8 µM) | relative viability ([1]; first compound 2.53 µM) | relative viability ([1]; first compound 8 µM) | relative viability ([2]; first compound 0.08 µM) | relative viability ([2]; first compound 0.253 µM) | relative viability ([2]; first compound 0.8 µM) | relative viability ([2]; first compound 2.53 µM) | relative viability ([2]; first compound 8 µM) | relative viability ([3]; first compound 0.08 µM) | relative viability ([3]; first compound 0.253 µM) | relative viability ([3]; first compound 0.8 µM) | relative viability ([3]; first compound 2.53 µM) | relative viability ([3]; first compound 8 µM) | relative viability ([4]; first compound 0.08 µM) | relative viability ([4]; first compound 0.253 µM) | relative viability ([4]; first compound 0.8 µM) | relative viability ([4]; first compound 2.53 µM) | relative viability ([4]; first compound 8 µM)
HCC-827 | 0.516 | 0.385 | 0.38 | 0.52 | 0.472 | 0.382 | 0.25 | 0.203 | 0.294 | 0.236 | 0.266 | 0.241 | 0.25 | 0.229 | 0.269 | 0.861 | 0.803 | 0.801 | 0.867 | 0.815
HOP-62 | 0.372 | 0.445 | 0.441 | 0.43 | 0.4 | 0.618 | 0.703 | 0.65 | 0.571 | 0.579 | 0.264 | 0.248 | 0.438 | 0.344 | 0.322 | 0.624 | 0.659 | 0.643 | 0.7 | 0.46
IA-LM |  |  |  |  |  |  |  |  |  |  |  |  |  |  |  | 0.911 | 0.848 | 0.903 | 0.958 | 1.02
LC-2-ad | 0.404 | 0.512 | 0.475 | 0.456 | 0.486 | 0.697 | 0.593 | 0.751 | 0.409 | 0.44 | 0.275 | 0.263 | 0.275 | 0.288 | 0.277 | 0.694 | 0.699 | 0.727 | 0.681 | 0.622
LCLC-97TM1 | 0.199 | 0.224 | 0.258 | 0.254 | 0.299 | 0.816 | 0.922 | 0.785 | 0.786 | 0.821 | 0.167 | 0.198 | 0.187 | 0.183 | 0.177 | 0.683 | 0.728 | 0.728 | 0.623 | 0.551
LCLC-103H | 0.255 | 0.425 | 0.558 | 0.449 | 0.458 | 0.482 | 0.487 | 0.435 | 0.42 | 0.497 | 0.47 | 0.442 | 0.555 | 0.458 | 0.456 | 0.815 | 0.801 | 0.782 | 0.793 | 0.57
LK-2 | 0.52 | 0.814 | 0.605 | 0.561 | 0.541 | 0.296 | 0.389 | 0.25 | 0.328 | 0.275 | 0.286 | 0.253 | 0.236 | 0.269 | 0.211 | 0.352 | 0.28 | 0.272 | 0.331 | 0.262
LOU-NH91 | 0.57 | 0.53 | 0.524 | 0.52 | 0.598 | 0.572 | 0.552 | 0.485 | 0.539 | 0.503 | 0.383 | 0.367 | 0.465 | 0.349 | 0.465 | 0.892 | 0.97 | 0.754 | 0.87 | 0.872
LU99A | 0.392 | 0.417 | 0.457 | 0.401 | 0.351 | 0.578 | 0.646 | 0.611 | 0.401 | 0.373 | 0.171 | 0.173 | 0.228 | 0.156 | 0.185 | 0.517 | 0.515 | 0.495 | 0.416 | 0.469
LXF-289 | 0.603 | 0.544 | 0.606 | 0.547 | 0.568 | 0.203 | 0.216 | 0.246 | 0.242 | 0.205 | 0.937 | 0.836 | 0.904 | 0.885 | 0.827 | 0.778 | 0.745 | 0.756 | 0.72 | 0.727
NCI-H23 |  | 0.655 | 0.556 | 0.579 | 0.478 | 0.739 | 0.933 | 0.916 | 0.823 | 0.849 |  | 0.718 | 0.962 | 0.776 | 0.596 |  | 0.655 | 0.688 | 0.649 | 0.549
NCI-H322M | 0.448 | 0.48 | 0.45 | 0.442 | 0.432 | 0.253 | 0.266 | 0.251 | 0.247 | 0.252 | 0.556 | 0.6 | 0.612 | 0.565 | 0.527 | 0.8 | 0.957 | 0.874 | 0.743 | 0.67
NCI-H358 | 0.122 | 0.139 | 0.141 | 0.149 | 0.17 | 0.171 | 0.158 | 0.138 | 0.163 | 0.183 | 0.176 | 0.173 | 0.165 | 0.164 | 0.175 | 0.73 | 0.629 | 0.585 | 0.582 | 0.482
NCI-H441 | 0.217 | 0.231 | 0.2 | 0.198 | 0.247 | 0.521 | 0.68 | 0.529 | 0.582 | 0.505 | 0.264 | 0.274 | 0.237 | 0.258 | 0.291 | 0.852 | 0.86 | 1.01 | 0.613 | 0.805
NCI-H596 |  |  |  |  |  | 0.575 | 0.648 | 0.628 | 0.618 | 0.602 | 0.493 | 0.554 | 0.484 | 0.502 | 0.521 | 0.575 | 0.72 | 0.585 | 0.554 | 0.862
NCI-H727 |  | 0.617 | 0.593 | 0.391 | 0.74 | 0.357 | 0.374 | 0.382 | 0.54 | 0.509 |  |  |  |  |  |  | 0.972 | 1.35 | 1.45 | 1.23
NCI-H1648 | 0.274 | 0.276 |  | 0.365 | 0.315 |  |  |  |  |  | 0.717 | 0.758 |  | 0.739 | 0.668 | 0.518 | 0.585 |  | 0.512 | 0.446
NCI-H1792 | 0.666 | 0.638 | 0.673 | 0.641 | 0.665 | 0.903 | 0.856 | 0.851 | 0.646 | 0.598 | 0.872 | 0.826 | 0.702 | 0.673 | 0.838 |  |  |  |  | 
